Measured values as given in paper PMC7144022, “Quinolinecarboxamides Inhibit the Replication of the Bovine Viral Diarrhea Virus by Targeting a Hot Spot for the Inhibition of Pestivirus Replication in the RNA-Dependent RNA Polymerase” (Molecules, 2020).

What was measured:
[1] = Cytotoxicity assay, proliferation of exponentially growing MDBK cells (MTS/PMS); assay type: cell-based, bovine; settings: bovine
Protocol: Assays were carried out, as described previously.

BVDV NADL virus = experiment: CPE-based antiviral assay, BVDV NADL in MDBK cells (MTS/PMS); settings: for EC50: Bovine viral diarrhea virus isolates and strains, MDBK, 72 h; for S.I.: selectivity index, CC50 vs EC50
[2] = sheet CSFCII#, potency relative to TO502-2403 (EC50 0.2 µM)
[3] = sheet CSFCI#, potency relative to TO505-6180 (EC50 0.07 µM)

| Compound | CC50 at 5 days [1] | EC50 (BVDV NADL virus) | S.I. (BVDV NADL virus) | fold increase (BVDV NADL virus; [2]) | fold increase (BVDV NADL virus; [3]) |
| --- | --- | --- | --- | --- | --- |
| O=C(Nc1ccn(-c2ccc(Cl)cc2)n1)c1cc(-c2ccco2)nc2c(F)cccc12 [CSFC-104, Clc1ccc(cc1)n2ccc(n2)NC(=O)c4cc(nc3c(F)cccc34)c5ccco5] | > 100 µM | 0.2 µM | 500 | 1.00 |  |
| COc1ccc(-c2cc(C(=O)Nc3nc4c(C)cccc4s3)c3ccccc3n2)cc1F [CSFC-119, COc1ccc(cc1F)c3nc2ccccc2c(c3)C(=O)Nc4nc5c(C)cccc5s4] | > 100 µM | 2.5 µM | 40 | 0.08 |  |
| COc1ccc2nc(NC(=O)c3cc(-c4ccco4)nc4c(F)cccc34)sc2c1 [CSFC-83, Fc5cccc1c5nc(cc1C(=O)Nc2nc3ccc(cc3s2)OC)c4ccco4] | > 100 µM | 0.07 µM | 1429 | 2.86 |  |
| Cc1ccc2sc(NC(=O)c3cc(-c4ccccc4)nc4ccccc34)nc2c1C [CSFC-145, Cc1c(C)ccc2sc(nc12)NC(=O)c1cc(nc2ccccc21)c1ccccc1] | > 100 µM | < 0.02 µM |  |  |  |
| COc1ccc2nc(NC(=O)c3cc(-c4ccco4)nc4ccc(F)cc34)sc2c1 [CSFC-63, Fc1cc2c(cc1)nc(cc2C(=O)Nc3nc4ccc(cc4s3)OC)c5ccco5] | > 100 µM | 18.8 µM | 5 | 0.0106 |  |
| O=C(Nc1ccn(-c2ccccc2)n1)c1cc(-c2cc3ccccc3o2)nc2ccccc12 [CSFC-92, O=C(Nc1ccn(n1)c2ccccc2)c3cc(nc4ccccc34)c5cc6ccccc6o5] | > 100 µM | 0.3 µM | 333 | 0.67 |  |
| O=C(Nc1nc2ccc(Br)cc2s1)c1cc(-c2ccccc2)nc2ccccc12 [CSFC-14, Brc1ccc2nc(NC(=O)c3cc(nc4ccccc43)c3ccccc3)sc2c1] | > 100 µM | 1.4 µM | 71 |  | 0.05 |
| Cc1cc2nc(NC(=O)c3cc(-c4ccccc4)nc4ccccc34)sc2cc1C [CSFC-11, Cc1cc2nc(NC(=O)c3cc(nc4ccccc43)c3ccccc3)sc2cc1C] | > 100 µM | 0.3 µM | 333 |  | 0.23 |
| Cc1ccccc1-n1ccc(NC(=O)c2cc(-c3ccccc3)nc3ccccc23)n1 [CSFC-142, Cc1ccccc1n2ccc(n2)NC(=O)c4cc(nc3ccccc34)c5ccccc5] | 23 µM | 2.3 µM | 10 | 0.09 |  |
| O=C(Nc1ccn(-c2cc(F)cc(F)c2)n1)c1cc(-c2ccccc2)nc2ccccc12 [CSFC-144, Fc1cc(F)cc(c1)n2ccc(n2)NC(=O)c4cc(nc3ccccc34)c5ccccc5] | > 100 µM | 0.02 µM |  | 10.00 |  |
| O=C(Nc1ccn(-c2ccccc2)n1)c1cc(-c2cccc3ccccc23)nc2ccccc12 [CSFC-143, O=C(c2cc(nc1ccccc12)c4cccc3ccccc34)Nc5ccn(n5)c6ccccc6] | > 100 µM | 0.1 µM | 1000 | 2.00 |  |
| O=C(Nc1ccn(-c2ccccc2)n1)c1cc(-c2ccc3ccccc3c2)nc2ccccc12 [CSFC-146, O=C(c2cc(nc1ccccc12)c3cc4ccccc4cc3)Nc5ccn(n5)c6ccccc6] | > 100 µM | 0.03 µM | 3333 | 6.67 |  |
| Cc1cc(C)c2nc(-c3ccco3)cc(C(=O)Nc3nc4c(C)cccc4s3)c2c1 [CSFC-75, Cc5cc1c(nc(cc1C(=O)Nc2nc3c(C)cccc3s2)c4ccco4)c(C)c5] | > 100 µM | 5.3 µM | 19 | 0.0377 |  |
| O=C(Nc1ccn(-c2ccccc2)n1)c1cc(-c2ccco2)nc2ccccc12 [CSFC-44, O=C(Nc1ccn(n1)c2ccccc2)c4cc(nc3ccccc34)c5ccco5] | 23 µM | 2.3 µM | 10 | 0.09 |  |
| CS(=O)(=O)c1ccc2nc(NC(=O)c3cc(-c4ccccc4)nc4ccccc34)sc2c1 [CSFC-56, CS(=O)(=O)c1ccc2nc(sc2c1)NC(=O)c4cc(nc3ccccc34)c5ccccc5] | > 100 µM | 100 µM | 1 | 0.002 |  |
| Cc1ccc(-c2csc(NC(=O)c3cc(-c4ccccc4)nc4ccccc34)n2)cc1 [CSFC-114, O=C(Nc1nc(cs1)c2ccc(C)cc2)c4cc(nc3ccccc34)c5ccccc5] | > 100 µM | 1.1 µM | 91 | 0.18 |  |
| Cc1ccc2nc(NC(=O)c3cc4ccccc4n3C)sc2c1 [CSFC-26, Cn1c2ccccc2cc1C(=O)Nc1nc2ccc(C)cc2s1] | > 100 µM | > 100 µM | 1 |  | 0.0007 |
| COc1ccc2nc(NC(=O)c3cc(-c4ccco4)nc4c(C)cc(C)cc34)sc2c1 [CSFC-65, O=C(c2cc(nc1c2cc(cc1C)C)c3ccco3)Nc4nc5ccc(cc5s4)OC] | > 100 µM | 5.8 µM | 17 | 0.0345 |  |

| Compound | CC50 at 5 days [1] | EC50 (BVDV NADL virus) | S.I. (BVDV NADL virus) | fold increase (BVDV NADL virus; [2]) | fold increase (BVDV NADL virus; [3]) |
| --- | --- | --- | --- | --- | --- |
| COc1cccc2sc(NC(=O)c3cc(-c4ccccc4)nc4ccccc34)nc12 [CSFC-19, COc1cccc2sc(nc12)NC(=O)c1cc(nc2ccccc21)c1ccccc1] | > 100 µM | 0.4 µM | 250 |  | 0.18 |
| O=C(Nc1ccn(-c2ccccc2)n1)c1cc(-c2cccs2)nc2c(Cl)cccc12 [CSFC-109, O=C(Nc1ccn(n1)c2ccccc2)c4cc(nc3c(Cl)cccc34)c5cccs5] | 13 µM | 0.2 µM | 65 | 1.00 |  |
| O=C(Nc1ccccn1)c1cc(-c2ccccc2)nc2ccccc12 [CSFC-6, O=C(Nc1ccccn1)c1cc(nc2ccccc21)c1ccccc1] | > 100 µM | > 100 µM | 1 |  | 0.0007 |
| Cc1cccc2sc(NC(=O)c3cc(-c4ccco4)nc4ccc(C(F)(F)OF)cc34)nc12 [CSFC-79, FC(F)(OF)c1cc2c(cc1)nc(cc2C(=O)Nc1nc2c(C)cccc2s1)c1ccco1] | > 100 µM | 2.5 µM | 40 | 0.08 |  |
| O=C(Nc1nnc(-c2ccccc2)s1)c1cc(-c2cccs2)nc2ccc(F)cc12 [CSFC-106, O=C(Nc1nnc(s1)c2ccccc2)c4cc(nc3ccc(F)cc34)c5cccs5] | > 100 µM | 2.3 µM | 43 | 0.09 |  |
| Cc1ccc2nc(NC(=O)c3ccccn3)sc2c1 [CSFC-25, Cc1ccc2nc(NC(=O)c3ccccn3)sc2c1] | > 100 µM | > 100 µM | 1 |  | 0.0007 |
| Cc1cc(C)c2sc(NC(=O)c3cc(-c4ccccc4)nc4ccccc34)nc2c1 [CSFC-149, Cc1cc2nc(NC(=O)c3cc(nc4ccccc43)c3ccccc3)sc2c(C)c1] | > 100 µM | 0.2 µM | 500 |  | 0.35 |
| Cc1cccc2sc(NC(=O)c3cc(-c4cccs4)nc4ccc(Br)cc34)nc12 [CSFC-95, Brc1cc2c(cc1)nc(cc2C(=O)Nc3nc4c(C)cccc4s3)c5cccs5] | > 100 µM | 3.1 µM | 32 | 0.0645 |  |
| Cc1ccc2nc(NC(=O)c3cccc4ccccc34)sc2c1 [CSFC-24, Cc1ccc2nc(NC(=O)c3cccc4ccccc43)sc2c1] | > 100 µM | > 100 µM | 1 |  | 0.0007 |
| Cc1cccc2sc(NC(=O)c3cc(-c4cccs4)nc4c(F)cccc34)nc12 [CSFC-101, Fc5cccc1c5nc(cc1C(=O)Nc2nc3c(C)cccc3s2)c4cccs4] | 23.2 µM | 0.3 µM | 77 | 0.67 |  |
| O=C(Nc1nc2ccc(F)cc2s1)c1cc(-c2ccccc2)nc2ccccc12 [CSFC-18, Fc1ccc2nc(NC(=O)c3cc(nc4ccccc43)c3ccccc3)sc2c1] | > 100 µM | 0.3 µM | 333 |  | 0.23 |
| O=C(Nc1ccn(-c2ccccc2)n1)c1cc(-c2ccc(F)cc2)nc2ccccc12 [CSFC-70, Fc1ccc(cc1)c3nc2ccccc2c(c3)C(=O)Nc4ccn(n4)c5ccccc5] | > 100 µM | 0.1 µM | 1000 | 2.00 |  |
| Cc1cccc2sc(NC(=O)c3cc(-c4cccs4)nc4c(Cl)cccc34)nc12 [CSFC-98, Clc5cccc1c5nc(cc1C(=O)Nc2nc3c(C)cccc3s2)c4cccs4] | > 100 µM | 0.2 µM | 500 | 1.00 |  |
| Cc1ccc2nc(NC(=O)c3cc4ccccc4[nH]3)sc2c1 [CSFC-28, Cc1ccc2nc(NC(=O)c3cc4ccccc4[NH]3)sc2c1] | > 100 µM | > 100 µM | 1 |  | 0.0007 |
| O=C(Nc1ccn(-c2ccccc2)n1)c1cc(-c2cnccn2)nc2ccccc12 [CSFC-108, O=C(c2cc(nc1ccccc12)c3cnccn3)Nc4ccn(n4)c5ccccc5] | > 100 µM | 0.2 µM | 500 | 1.00 |  |
| O=C(Nc1ccn(-c2ccc(F)cc2)n1)c1cc(-c2cccnc2)nc2ccccc12 [CSFC-129, Fc1ccc(cc1)n2ccc(n2)NC(=O)c4cc(nc3ccccc34)c5cccnc5] | 68 µM | 1.4 µM | 49 | 0.14 |  |
| O=C(Nc1nc2ccc([N+](=O)[O-])cc2s1)c1cc(-c2ccccc2)nc2ccccc12 [CSFC-12, [O-][N+](=O)c1ccc2nc(NC(=O)c3cc(nc4ccccc43)c3ccccc3)sc2c1] | 46.8 µM | > 100 µM | 0.5 |  | 0.0007 |
| Cc1ccc2nc(N(C)C(=O)c3cc(-c4ccccc4)nc4ccccc34)sc2c1 [CSFC-21, O=C(c1cc(nc2ccccc21)c1ccccc1)N(C)c1nc2ccc(C)cc2s1] | > 100 µM | > 100 µM | 1 |  | 0.0007 |
